Usually IC50 stands for the concentration that inhibits the measured activity by half.

Data on 28 molecules can be found in patent US9914730B2, “Azaquinazoline inhibitors of Atypical protein Kinase C” (Ignyta, Inc., priority 2012, dated 2018).

In this experiment the target is T1, full-length human PKCι (Homo sapiens, UniProt P41743).
T1 construct: Recombinant, full-length human PKCι expressed in Sf21 insect cells is also commercially available; purchased; host or cells: Sf21 insect cells
T1 sequence (P41743 1-596): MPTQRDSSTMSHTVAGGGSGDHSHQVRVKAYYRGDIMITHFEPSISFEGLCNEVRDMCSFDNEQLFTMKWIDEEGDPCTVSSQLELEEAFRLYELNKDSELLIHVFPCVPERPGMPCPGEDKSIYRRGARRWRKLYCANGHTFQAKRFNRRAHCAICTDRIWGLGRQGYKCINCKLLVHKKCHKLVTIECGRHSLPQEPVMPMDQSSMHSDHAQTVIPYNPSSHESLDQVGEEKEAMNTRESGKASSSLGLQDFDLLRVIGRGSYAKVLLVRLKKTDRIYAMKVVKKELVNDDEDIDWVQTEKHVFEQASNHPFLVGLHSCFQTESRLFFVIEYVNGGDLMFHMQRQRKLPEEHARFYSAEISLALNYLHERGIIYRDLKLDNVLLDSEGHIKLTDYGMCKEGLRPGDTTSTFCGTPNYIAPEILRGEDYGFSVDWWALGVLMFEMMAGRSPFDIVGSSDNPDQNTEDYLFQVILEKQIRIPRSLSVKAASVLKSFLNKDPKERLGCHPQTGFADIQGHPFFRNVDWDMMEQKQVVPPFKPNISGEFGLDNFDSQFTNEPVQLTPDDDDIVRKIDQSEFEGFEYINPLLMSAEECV
The experiment in a line: PKCι IC50 IMAP assay, full-length PKCι at 150 μM ATP. Format: biochemical. The following applies: read-out: IC50 in IMAP assay against full length PKCi at 150 μM ATP. The procedure, abridged:
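Compounds in 4% final DMSO are mixed with Sf21-derived full-length human PKCι (typically 15 pM) and 100 nM FAM-labelled pseudosubstrate peptide, then started with 150 μM ATP. Reaction runs 60 min at room temperature, is quenched with IMAP development reagent for 2 h, and fluorescence polarisation is measured to derive IC50.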

Bounds are passed on as bounds.

`CNC(=O)C1CCCN(c2nc(-c3ccnc(Nc4c(F)cccc4F)c3)nc3cncc(C4CC4)c23)C1` (stereo not shown) [Example 707, 1-{5-Cyclopropyl-2-[2-(2,6-difluoro-phenylamino)-pyridin-4-yl]-pyrido[3,4-d]pyrimidin-4-yl}-piperidine-3-carboxylic acid methylamide]: the half-maximal inhibitory concentration (IC50) was in the range of 10 to 40 µM.
As for `c1ccn2nc(Nc3cc(-c4nc(N5CCNCC5)c5c(C6CC6)cncc5n4)ccn3)cc2c1` [Example 2072, [4-(5-Cyclopropyl-4-piperazin-1-yl-pyrido[3,4-d]pyrimidin-2-yl)-pyridin-2-yl]-pyrazolo[1,5-a]pyridin-2-yl-amine], the figure is less than 0.1 µM.
As for `COc1cncc2nc(-c3ccnc(N)c3)nc(N3CCNCC3)c12` [Example 208, 4-(5-Methoxy-4-piperazin-1-yl-pyrido[3,4-d]pyrimidin-2-yl)-pyridin-2-ylamine], the figure is less than 0.1 µM; as for `OC1CCN(c2nc(-c3ccnc(Nc4ccccc4F)c3)nc3cncc(C4CC4)c23)CC1` [Example 274, 1-{5-Cyclopropyl-2-[2-(2-fluoro-phenylamino)-pyridin-4-yl]-pyrido[3,4-d]pyrimidin-4-yl}-piperidin-4-ol], 0.1 to 1 µM.
As for `Cc1nc(Nc2cc(-c3nc(N4CCNCC4)c4c(C5CC5)cncc4n3)ccn2)oc1C` [Example 272, [4-(5-Cyclopropyl-4-piperazin-1-yl-pyrido[3,4-d]pyrimidin-2-yl)-pyridin-2-yl]-(4,5-dimethyl-oxazol-2-yl)-amine], the figure is less than 0.1 µM; as for `COc1cncc2nc(-c3ccnc(Nc4ccccc4)c3)nc(N3CCC(O)C(O)C3)c12` (single isomer, unassigned) [Example 457, (3R,4R)-1-[5-Methoxy-2-(2-phenylamino-pyridin-4-yl)-pyrido[3,4-d]pyrimidin-4-yl]-piperidine-3,4-diol or (3S,4S)-1-[5-Methoxy-2-(2-phenylamino-pyridin-4-yl)-pyrido[3,4-d]pyrimidin-4-yl]-piperidine-3,4-diol], 0.1 to 1 µM; as for `Brc1cncc2nc(N3CCOCC3)nc(N3CCNCC3)c12` [Example 1015, 5-Bromo-2-morpholin-4-yl-4-piperazin-1-yl-pyrido[3,4-d]pyrimidine], 0.1 to 1 µM.
Turning to `N[C@H](CNc1nc(-c2ccncc2)nc2c(Nc3nc[nH]n3)nccc12)Cc1ccccc1` [Example 126, 4-N-[(2S)-2-amino-3-phenylpropyl]-2-(pyridin-4-yl)-8-N-(1H-1,2,4-triazol-3-yl)pyrido[3,4-d]pyrimidine-4,8-diamine], the IC50 was 0.1 to 1 µM.
As for `Fc1ccc2nc(Nc3cc(-c4nc(N5CCNCC5)c5c(C6CC6)cncc5n4)ccn3)nn2c1` [Example 2039, [4-(5-Cyclopropyl-4-piperazin-1-yl-pyrido[3,4-d]pyrimidin-2-yl)-pyridin-2-yl]-(6-fluoro-[1,2,4]triazolo[1,5-a]pyridin-2-yl)-amine], the figure is less than 0.1 µM; as for `Fc1cccc(F)c1Nc1cc(-c2nc(NC[C@@H]3CCCN3)c3c(C4CC4)cncc3n2)ccn1` [Example 698, {5-Cyclopropyl-2-[2-(2,6-difluoro-phenylamino)-pyridin-4-yl]-pyrido[3,4-d]pyrimidin-4-yl}-(S)-1-pyrrolidin-2-ylmethyl-amine], 0.1 to 1 µM; as for `Fc1cncc(Nc2cc(-c3nc(N4CCNCC4)c4c(C5CC5)cncc4n3)ccn2)c1` [Example 535, [4-(5-Cyclopropyl-4-piperazin-1-yl-pyrido[3,4-d]pyrimidin-2-yl)-pyridin-2-yl]-(5-fluoro-pyridin-3-yl)-amine], 0.1 to 1 µM.
As for `COc1cncc2nc(-c3ccnc(NC(=O)c4ccccc4)c3)nc(N3CCNCC3)c12` [Example 212, N-[4-(5-Methoxy-4-piperazin-1-yl-pyrido[3,4-d]pyrimidin-2-yl)-pyridin-2-yl]-benzamide], the figure is less than 0.1 µM; as for `CN1CCC(Sc2nc(-c3ccnc(Nc4c(F)cccc4F)c3)nc3cncc(C4CC4)c23)CC1` [Example 2128, {4-[5-Cyclopropyl-4-(1-methyl-piperidin-4-ylsulfanyl)-pyrido[3,4-d]pyrimidin-2-yl]-pyridin-2-yl}-(2,6-difluoro-phenyl)-amine], 0.1 to 1 µM; as for `COc1cncc2nc(N3CCOCC3)nc(NC[C@@H](N)Cc3ccccc3)c12` [Example 1002, (S)-N^1-(5-Methoxy-2-morpholin-4-yl-pyrido[3,4-d]pyrimidin-4-yl)-3-phenyl-propane-1,2-diamine], less than 0.1 µM.
As for `COc1cncc2nc(-c3ccnc(Nc4ccc(C5CCOCC5)cc4)c3)nc(N3CCNCC3)c12` [Example 362, [4-(5-Methoxy-4-piperazin-1-yl-pyrido[3,4-d]pyrimidin-2-yl)-pyridin-2-yl]-[4-(tetrahydro-pyran-4-yl)-phenyl]-amine], the figure is less than 0.1 µM; as for `Fc1cccc(Nc2cc(-c3nc(N4CCNCC4)c4c(C5CC5)cncc4n3)ccn2)c1Cl` [Example 578, (2-Chloro-3-fluoro-phenyl)-[4-(5-eyclopropyl-4-piperazin-1-yl-pyrido[3,4-d]pyrimidin-2-yl)-pyridin-2-yl]-Amine], less than 0.1 µM.
As for `COc1cncc2nc(-c3ccnc(Nc4ccccc4)c3)nc(N3CCNC(C(F)(F)F)C3)c12` (stereo not shown) [Example 231, {4-[5-Methoxy-4-(3-trifluoromethyl-piperazin-1-yl)-pyrido[3,4-d]pyrimidin-2-yl]-pyridin-2-yl}-phenyl-amine], the half-inhibitory concentration (IC50) is 10 to 40 µM.
On to `N[C@H](CNc1nc(-c2ccncc2)nc2c(-c3cccnc3)nccc12)Cc1ccccc1` [Example 99, N-[(2S)-2-amino-3-phenylpropyl]-8-(pyridin-3-yl)-2-(pyridin-4-yl)pyrido[3,4-d]pyrimidin-4-amine], for which the IC50 fell in the range of 0.1 to 1 µM.
As for `Fc1cc(F)c(Nc2cc(-c3nc(N4CCNCC4)c4c(C5CCC5)cncc4n3)ccn2)nc1F` [Example 807, [4-(5-Cyclobutyl-4-piperazin-1-yl-pyrido[3,4-d]pyrimidin-2-yl)-pyridin-2-yl]-(3,5,6-trifluoro-pyridin-2-yl)-amine], the figure is less than 0.1 µM; as for `Cn1nccc1-c1ccc(Nc2cc(-c3nc(N4CCNCC4)c4c(C5CC5)cncc4n3)ccn2)c(F)c1` [Example 2055, [4-(5-Cyclopropyl-4-piperazin-1-yl-pyrido[3,4-d]pyrimidin-2-yl)-pyridin-2-yl]-[2-fluoro-4-(2-methyl-2H-pyrazol-3-yl)-phenyl]-amine], less than 0.1 µM; as for `Cn1ccc(Nc2cc(-c3nc(N4CCN[C@@H](C(F)(F)F)C4)c4c(C5CC5)cncc4n3)ccn2)n1` [Example 2053, {4-[5-Cyclopropyl-4-((R)-3-trifluoromethyl-piperazin-1-yl)-pyrido[3,4-d]pyrimidin-2-yl]-pyridin-2-yl}-(1-methyl-1H-pyrazol-3-yl)-amine], less than 0.1 µM.
As for `COc1cncc2nc(-c3ccnc(Nc4cccc(CC(N)=O)c4)c3)nc(N[C@@H]3CCNC3)c12` [Example 324, 2-(3-{4-[5-Methoxy-4-((R)-pyrrolidin-3-ylamino)-pyrido[3,4-d]pyrimidin-2-yl]-pyridin-2-ylamino}-phenyl)-acetamide], the figure is less than 0.1 µM; as for `FC(F)(F)Cn1cc(Cl)c(Nc2cc(-c3nc(N4CCNCC4)c4c(C5CC5)cncc4n3)ccn2)n1` [Example 2030, [4-Chloro-1-(2,2,2-trifluoro-ethyl)-1H-pyrazol-3-yl]-[4-(5-cyclopropyl-4-piperazin-1-yl-pyrido[3,4-d]pyrimidin-2-yl)-pyridin-2-yl]-amine], less than 0.1 µM.
As for `Fc1cccc2c1[nH]c1nccc(-c3nc(N4CCNCC4)c4c(C5CC5)cncc4n3)c12` [Example 2031, 4-(5-Cyclopropyl-4-piperazin-1-yl-pyrido[3,4-d]pyrimidin-2-yl)-8-fluoro-9H-pyrido[2,3-b]indole], the figure is less than 0.1 µM.
Consider `COc1cncc2nc(-c3ccnc(Nc4ccccc4)c3)nc(N3CC[C@@H](O)[C@H](O)C3)c12` (racemic) [Example 437, (±)-trans-1-[5-Methoxy-2-(2-phenylamino-pyridin-4-yl)-pyrido[3,4-d]pyrimidin-4-yl]-piperidine-3,4-diol], for which the IC50 lay within 0.1 to 1 µM.
Take `COc1cncc2nc(-c3ccncc3)nc(N3CCN[C@@H](C(F)c4ccccc4)C3)c12` (stereo partly drawn) [Example 74, (3R)-3-[fluoro(phenyl)-methyl]-1-[5-methoxy-2-(pyridin-4-yl)-pyrido[3,4-d]-pyrimidin-4-yl]-piperazine]: the IC50 was less than 0.1 µM.
As for `Fc1ncccc1Nc1cc(-c2nc(N3CCNCC3)c3c(C4CC4)cncc3n2)ccn1` [Example 495, [4-(5-cyclopropyl-4-piperazin-1-yl-pyrido[3,4-d]pyrimidin-2-yl)-pyridin-2-yl]-(2-fluoro-pyridin-3-yl)-amine], the figure is less than 0.1 µM; as for `CC(C)Cn1cc(-c2nccc3c(NC[C@@H](N)Cc4ccccc4)nc(-c4ccncc4)nc23)cn1` [Example 101, N-[(2S)-2-amino-3-phenylpropyl]-8-[1-(2-methyl-propyl)-1H-pyrazol-4-yl]-2-(pyridin-4-yl)-pyrido[3,4-d]-pyrimidin-4-amine], 1 to 10 µM.
